Laboratory results published in patent US20250320213A1, “Nitrogen-Containing Heterocyclic Compounds” (Pfizer Inc., priority 2024, published 2025).
Where two headings read alike, the source gives them in different places.

Key:
[1] = biological target: T1, STAT6 (Homo sapiens, UniProt P42226); test: STAT6 Reporter Luciferase Assay (IL-13 stimulated HaCaT keratinocyte NanoLuc reporter cells); format: cell-based; conditions: read-out: Reporter EC50
T1 construct: stably transfected HaCaT keratinocyte cell line, which expresses NanoLuc luciferase reporter gene under the transcriptional control of the STAT6 responsive promoter; endogenous in cells; host or cells: HaCaT keratinocyte reporter cell line (stably transfected with a NanoLuc reporter)
T1 sequence (P42226 1-847): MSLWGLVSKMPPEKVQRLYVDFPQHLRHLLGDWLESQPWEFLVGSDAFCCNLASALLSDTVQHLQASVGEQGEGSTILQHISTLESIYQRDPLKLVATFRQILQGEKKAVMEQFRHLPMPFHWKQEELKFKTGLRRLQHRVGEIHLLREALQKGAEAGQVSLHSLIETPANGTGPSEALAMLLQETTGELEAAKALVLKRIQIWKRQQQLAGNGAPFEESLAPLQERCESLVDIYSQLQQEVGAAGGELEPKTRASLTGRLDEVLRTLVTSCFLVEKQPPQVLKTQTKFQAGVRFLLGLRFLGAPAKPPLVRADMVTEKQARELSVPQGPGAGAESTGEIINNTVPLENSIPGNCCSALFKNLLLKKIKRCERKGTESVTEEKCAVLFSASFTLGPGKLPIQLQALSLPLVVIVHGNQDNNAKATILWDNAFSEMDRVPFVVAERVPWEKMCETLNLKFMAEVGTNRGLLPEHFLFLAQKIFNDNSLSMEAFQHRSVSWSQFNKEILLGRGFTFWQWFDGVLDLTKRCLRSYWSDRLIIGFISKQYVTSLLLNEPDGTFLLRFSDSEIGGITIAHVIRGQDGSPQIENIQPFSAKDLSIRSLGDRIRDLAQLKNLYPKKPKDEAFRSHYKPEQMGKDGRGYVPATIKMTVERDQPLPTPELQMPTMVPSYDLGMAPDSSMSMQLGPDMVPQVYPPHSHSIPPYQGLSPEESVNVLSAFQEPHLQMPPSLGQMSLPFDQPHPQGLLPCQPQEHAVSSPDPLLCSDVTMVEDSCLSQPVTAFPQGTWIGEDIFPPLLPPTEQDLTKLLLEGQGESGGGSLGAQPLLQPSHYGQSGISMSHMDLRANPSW
In short: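 Cells were plated overnight, washed, exposed to compound for two hours, stimulated with IL-13 (0.12 nM final) for four hours at 37 °C, and then lysed with Nano-Glo substrate for 15 min before luminescence reading.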

[2] = test system: CCL17 secretion in peripheral human whole blood; test: Human Whole Blood (HWB) CCL17 TR-FRET Assay (IL-13 stimulated CCL17 secretion); format: cell-based
In short: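 IC50 comes from serum CCL17 measured by a TR-FRET sandwich assay (16 h at room temperature, 665/615 nm ratio). Beforehand, blood in sodium heparin was exposed to an 11-point, 3-fold compound series for 2 h at 37°C and then to 10 ng/mL IL-13 for 48 h.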

[3] = IL-13 stimulated HaCaT STAT6 NanoLuc reporter cells
[4] = human whole blood, IL-13 stimulated, 48 hours
[5] = STAT6 NanoLuc luciferase reporter, IL-13 stimulated HaCaT keratinocyte cells
[6] = Homo sapiens, 48 h, inhibition of CCL17 secretion in human whole blood, 10 ng/mL IL13, 48 hours
[7] = Homo sapiens, 48 h, human whole blood, IL-13 stimulated

Structure (SMILES)	EC50 [1, 3]	EC50 [1, 5]	IC50 [2, 6]	also measured
CC(C)n1nc(C(=O)NCc2ccc(NC(=O)N(C)C)cc2)c2c1CCN(c1ccc(C3CCCO3)cn1)C2 (single isomer, unassigned) [Example 362, rel-(R or S)-N-(4-(3,3-dimethylureido)benzyl)-1-isopropyl-5-(5-(tetrahydrofuran-2-yl)pyridin-2-yl)-4,5,6,7-tetrahydro-1H-pyrazolo[4,3-c]pyridine-3-carboxamide]	838 nM	–	–	IC50 [2, 4]: > 3490 nM
CN(C)C(=O)Nc1ccc(CNC(=O)c2n[nH]c3c2CN(c2ccc(C(=O)N(C)C)cn2)CC3)cc1 [Example 18, 5-(5-(Dimethylcarbamoyl)pyridin-2-yl)-N-(4-(3,3-dimethylureido)benzyl)-4,5,6,7-tetrahydro-1H-pyrazolo[4,3-c]pyridine-3-carboxamide]	–	1420 nM	1380 nM	–
Cc1nn(C)c(=O)n1-c1ccc(N2Cc3c(C(=O)NCc4ccc(NC(=O)N(C)C)cc4)nn(C(C)C)c3[C@@H](C)C2)nc1 [Example 466, (S)-5-(5-(1,3-dimethyl-5-oxo-1,5-dihydro-4H-1,2,4-triazol-4-yl)pyridin-2-yl)-N-(4-(3,3-dimethylureido)benzyl)-1-isopropyl-7-methyl-4,5,6,7-tetrahydro-1H-pyrazolo[4,3-c]pyridine-3-carboxamide]	2 nM	–	–	IC50 [2, 7]: 18 nM
CC[C@H]1CCC(=O)N1c1ccc(N2CCc3c(c(C(=O)NCc4ccc(NC(=O)N(C)C)cc4)nn3C(C)C)C2)nc1 [Example 79, (S)-N-(4-(3,3-dimethylureido)benzyl)-5-(5-(2-ethyl-5-oxopyrrolidin-1-yl)pyridin-2-yl)-1-isopropyl-4,5,6,7-tetrahydro-1H-pyrazolo[4,3-c]pyridine-3-carboxamide]	–	41 nM	1780 nM	–
CN(C)C(=O)Nc1ccc(CNC(=O)c2nn(C3CCCOC3)c3c2CN(c2ccc(C(=O)N(C)C)cn2)CC3)cc1 (stereo not drawn) [Example 254, 5-(5-(dimethylcarbamoyl)pyridin-2-yl)-N-(4-(3,3-dimethylureido)benzyl)-1-(tetrahydro-2H-pyran-3-yl)-4,5,6,7-tetrahydro-1H-pyrazolo[4,3-c]pyridine-3-carboxamide]	22 nM	–	–	IC50 [2, 7]: 180 nM
CC(C)n1nc(C(=O)NCc2ccc(NC(=O)N3CCN(C)CC3)c(F)c2)c2c1[C@@H](C)CN(c1ccc(C(=O)N(C)C)cn1)C2 [Example 606, (S)-5-(5-(dimethylcarbamoyl)pyridin-2-yl)-N-(3-fluoro-4-(4-methylpiperazine-1-carboxamido)benzyl)-1-isopropyl-7-methyl-4,5,6,7-tetrahydro-1H-pyrazolo[4,3-c]pyridine-3-carboxamide]	1 nM	–	–	IC50 ([2]; Homo sapiens, 48 h, human whole blood, 10 ng/mL IL13, 48 hours): 9 nM
CC(C)n1nc(C(=O)NCc2ccc(NC(=O)N(C)C)cc2)c2c1CCN(c1ccc(-c3ncnn3C)cn1)C2 [Example 27, N-(4-(3,3-dimethylureido)benzyl)-1-isopropyl-5-(5-(1-methyl-1H-1,2,4-triazol-5-yl)pyridin-2-yl)-4,5,6,7-tetrahydro-1H-pyrazolo[4,3-c]pyridine-3-carboxamide]	–	6 nM	91 nM	–
CN(C)C(=O)Nc1ccc(CNC(=O)c2nn(C34CC(C3)C4)c3c2CN(c2ccc(C(=O)N(C)C)cn2)CC3)cc1 [Example 104, 1-(bicyclo[1.1.1]pentan-1-yl)-5-(5-(dimethylcarbamoyl)pyridin-2-yl)-N-(4-(3,3-dimethylureido)benzyl)-4,5,6,7-tetrahydro-1H-pyrazolo[4,3-c]pyridine-3-carboxamide]	–	7 nM	107 nM	–
CC(n1nc(C(=O)NCc2ccc(NC(=O)N(C)C)cc2)c2c1CCN(c1ccc(C(=O)N(C)C)cn1)C2)C(F)(F)F (racemic) [Example 101, rac-(R)-5-(5-(dimethylcarbamoyl)pyridin-2-yl)-N-(4-(3,3-dimethylureido)benzyl)-1-(1,1,1-trifluoropropan-2-yl)-4,5,6,7-tetrahydro-1H-pyrazolo[4,3-c]pyridine-3-carboxamide]	–	5 nM	53 nM	–
CCc1nc(C(=O)NCc2ccc(NC(=O)N(C)C)cc2)c2n1C(C)CN(c1ccc(C(=O)N(C)C)cc1)C2 (single isomer, unassigned) [Example 429, rel-(R or S)-7-(4-(dimethylcarbamoyl)phenyl)-N-(4-(3,3-dimethylureido)benzyl)-3-ethyl-5-methyl-5,6,7,8-tetrahydroimidazo[1,5-a]pyrazine-1-carboxamide]	1 nM	–	–	IC50 [2, 4]: 6 nM
CC(C)n1nc(C(=O)NCc2ccc(-c3ncc[nH]3)cc2)c2c1C(C(F)(F)F)CN(c1ccc(C(=O)N(C)C)cn1)C2 (single isomer, unassigned) [Example 123, rel-(R or S)-N-(4-(1H-imidazol-2-yl)benzyl)-5-(5-(dimethylcarbamoyl)pyridin-2-yl)-1-isopropyl-7-(trifluoromethyl)-4,5,6,7-tetrahydro-1H-pyrazolo[4,3-c]pyridine-3-carboxamide]	–	41 nM	–	IC50 ([2]; inhibition of CCL17 secretion in human whole blood, 10 ng/mL IL13, 48 hours): 1010 nM
CC(C)n1nc(C(=O)NCc2ccc(N)cc2)c2c1[C@@H](C)CN(c1ccc(C(=O)N(C)C)cn1)C2 [Example 450, (S)-N-(4-aminobenzyl)-5-(5-(dimethylcarbamoyl)pyridin-2-yl)-1-isopropyl-7-methyl-4,5,6,7-tetrahydro-1H-pyrazolo[4,3-c]pyridine-3-carboxamide]	21 nM	–	–	IC50 [2, 7]: 93 nM
CC(CC#N)n1nc(C(=O)NCc2ccc(NC(=O)N(C)C)cc2)c2c1CCN(c1ccc(C(=O)N(C)C)cn1)C2 (single isomer, unassigned) [Example 348, rel-(R or S)-1-(1-cyanopropan-2-yl)-5-(5-(dimethylcarbamoyl)pyridin-2-yl)-N-(4-(3,3-dimethylureido)benzyl)-4,5,6,7-tetrahydro-1H-pyrazolo[4,3-c]pyridine-3-carboxamide]	43 nM	–	–	IC50 [2, 4]: 36 nM
CC(C)n1nc(C(=O)NCc2ccc(NC(=O)N(C)C)cc2)c2c1CCN(c1ccc(C3CCNC3=O)cn1)C2 (racemic) [Example 469, rac-(R)—N-(4-(3,3-Dimethylureido)benzyl)-1-isopropyl-5-(5-(2-oxopyrrolidin-3-yl)pyridin-2-yl)-4,5,6,7-tetrahydro-1H-pyrazolo[4,3-c]pyridine-3-carboxamide]	5110 nM	–	–	IC50 [2, 4]: > 4160 nM
CCn1nc(C(=O)NCc2ccc(NC(=O)NC)cc2)c2c1[C@@H](C)CN(c1ncc(N3CCCC3=O)cn1)C2 [Example 482, (S)-1-ethyl-7-methyl-N-(4-(3-methylureido)benzyl)-5-(5-(2-oxopyrrolidin-1-yl)pyrimidin-2-yl)-4,5,6,7-tetrahydro-1H-pyrazolo[4,3-c]pyridine-3-carboxamide]	7 nM	–	–	IC50 [2, 7]: 25 nM
CO[C@@H]1CCN(C(=O)Nc2ccc(CNC(=O)c3nn(C(C)C)c4c3CN(c3ccc(C(=O)N(C)C)cn3)CC4)cc2)C1 [Example 179, (R)-5-(5-(dimethylcarbamoyl)pyridin-2-yl)-1-isopropyl-N-(4-(3-methoxypyrrolidine-1-carboxamido)benzyl)-4,5,6,7-tetrahydro-1H-pyrazolo[4,3-c]pyridine-3-carboxamide]	–	7 nM	64 nM	–
CC(C)n1nc(C(=O)NCc2ccc(NC(=O)NCc3ccc(NC(=O)N(C)C)cc3)cc2)c2c1[C@@H](C)CN(c1ccc(C(=O)N(C)C)cn1)C2 [Example 499, (S)-5-(5-(dimethylcarbamoyl)pyridin-2-yl)-N-(4-(3-(4-(3,3-dimethylureido)benzyl)ureido)benzyl)-1-isopropyl-7-methyl-4,5,6,7-tetrahydro-1H-pyrazolo[4,3-c]pyridine-3-carboxamide]	0.3 nM	–	–	IC50 [2, 7]: 6 nM
CC(C)n1nc(C(=O)NCc2ccc(-c3ncc[nH]3)cc2)c2c1CCN(c1ccc(C(=O)N(C)C)cn1)C2 [Example 11, N-(4-(1H-imidazol-2-yl)benzyl)-5-(5-(dimethylcarbamoyl)pyridin-2-yl)-1-isopropyl-4,5,6,7-tetrahydro-1H-pyrazolo[4,3-c]pyridine-3-carboxamide]	–	16 nM	205 nM	–
